Where a name gives a salt, the structure may show the parent alone.
Assays:
PRMT5/MEP50 complex = PRMT5/MEP50 complex (Homo sapiens (Human), UniProt O14744); assay: PRMT5 biochemical assay (3H-SAM filter plate, histone H2A substrate); settings: PRMT5/MEP50 5 nM, histone H2A 5 μM, SAM 1 μM; read-out: PRMT5 IC50
Experimental: Biochemical Assay Protocol
Compounds were solubilized and 3-fold diluted in 100% DMSO. […] Standard reactions were performed in a total volume of 50 μl in assay buffer, with histone H2A (5 μM final) as substrate. To this was added the PRMT5/MEP50 complex diluted to provide a final assay concentration of 5 nM and the compounds were allowed to preincubate for 15 to 20 minutes at room temperature. The reaction was initiated by adding S-[3H-methyl]-adenosyl-L-methionine (PerkinElmer) to final concentration of 1 μM. Following a 60 minutes incubation at 30° C., the reaction was stopped by adding 100 μL of 20% TCA. Each reaction was spotted onto filter plate (MultiScreen FB Filter Plate, Millipore), and washed 5 times with PBS buffer, Scintillation fluid was added to the filter plate and read in a scintillation counter. IC50 values were determined by fitting the data to the standard 4 parameters with Hill Slope using GraphPad Prism software.

sDMA [1] = assay: sDMA levels in tumor samples of Granta-519 mouse xenograft (WB); type: in vivo
Experimental: (§1) Granta-519 cells was maintained in DMEM medium supplemented with 10% fetal bovine serum and 2 mM L-Glutamine at 37° C. in an atmosphere of 5% CO2 in air. Cells in exponential growth phase were harvested and 1×10^7 cells in 0.1 mL of PBS with Matrigel (1:1) were injected subcutaneously at the right lower flank region of each mouse for tumor development. The treatments were started when the mean tumor size reaches approximately 300-400 mm^3. […] Example 47 or vehicle (0.5% Na CMC+0.5% Tween80, suspension) were administered orally (QD for Example 47, QD for vehicle) at a dose of 30 mg/kg and 50 mg/kg for 19 and 16 days, respectively. Body weights and tumor size were measured every 3 to 4 days after randomization. Animals were euthanized 12 hours after last dosing, and blood and tumor samples were collected for analysis.
To measure sDMA levels in tumor samples, tumors from each mouse were weighted and homogenized in RIPA buffer supplemented with protease inhibitor (cOmplete™, EDTA-free Protease Inhibitor Cocktail, Roche). Lysate were centrifuged at 14,000 rpm for 30 min at 4° C. to remove debris. Total protein concentrations of lysate were determined by BCA assay (ThermoFisher Scientific, Catalog #: 23225). Equal amount of total proteins from each tumor were separated on SDS-PAGE gel, and sDMA levels were determined by WB as described previously.

Granta-519 cells = assay: Cell proliferation assay on Granta-519 cells (CCK-8, day 10); type: cell-based; settings: Homo sapiens, 240 h, Granta-519 cell line, read-out: Prolif. IC50
Experimental: Cell Proliferation Assay to Determine IC50 on Granta-519 Cells
Granta-519 cells were maintained in PRMI 1640 (Corning Cellgro, Catalog #: 10-040-CV) medium supplemented with 10% v/v FBS (GE Healthcare, Catalog #: SH30910.03). Compounds were dissolved in DMSO to make 10 mM stocks and stored at −20° C. Nine-point, 3-fold serial dilutions were made with DMSO with top concentration at 1 mM (working stocks).
On day of experiment, compound working stocks were further diluted at 1:50 with fresh medium in 96 well plate, and 10 μL of diluted drugs were added to a new 96 well plate for proliferation assay. Cells growing at exponential phase were spun down at 1500 rpm for 4 min and resuspend in fresh medium to reach a density of 0.5×10^6 cells/ml. 200 ul of cells were added to 96 well plate containing diluted drugs and incubated for 3 days. DMSO was used a vehicle control.
One day 3, 10 μL of Cell Counting Kit-8 (CCK-8, Jojindo, CK04-13) solution was added to a new 96 well plate. Cells incubated with drugs for 3 days were resuspended by pipetting up and down, and 100 μL of cells were transferred to 96 well plate containing CCK-8 reagent to measure viable cells. Plates were incubated in CO2 incubator for 2 hours and OD450 values were measured with a microplate reader (iMark microplate reader, Bio-Rad).
For re-plating, compound working stocks were diluted at 1:50 with fresh medium and 10 μL of diluted drugs were added to a new 96 well plate. Cells from Day 3 plate (50 ul) were added to 96 well plate containing fresh drug and additional 150 μL of fresh medium was added to reach 200 μL volume. Plate was returned to CO2 incubator and incubated for 3 more days. Viable cells measurement and re-plating were repeated on day 6, and the final viable cells measurement was taken on day 10.
Percentage of viable cells, relative to DMSO vehicle control, were calculated and plotted in Graphpad Prism ([Inhibitor] vs. normalized response−Variable slope) to determine proliferation IC50 values on day 10.

[2] = Body weight in Granta-519 mouse xenograft study; type: in vivo
Experimental: as §1

sDMA [3] = assay: Western blot for symmetric di-methyl arginine (sDMA) IC50 in Granta cells; type: cell-based; settings: Homo sapiens, 72 h; Granta-519 cell line, 3 days
Granta-519 = assay: Tumor growth inhibition in Granta-519 mouse xenograft model; type: in vivo
Experimental: In Vivo Pharmacodynamic Effect and Tumor Growth Inhibition of Example 47 in Granta-519 Mouse Xenograft Model.
as §1

[4] = Rat non-crossover PK study; type: in vivo
Experimental: In Vivo Pharmacokinetic Properties of Example 47.
In a rat (SD, male, non-fasted) non-crossover PK study, Example 47 was dosed at 1 mg/kg (DMA: 20% HPBCD=5:95, solution) via i.v. administration (N=3) and 1 mg/kg (0.5% Na CMC+0.5% Tween80, solution) via oral gauge (p.o.) (N=3).

physchem = settings: FaSSIF buffer, 25 °C, thermodynamic from solid

PRMT5/MEP50 complex, sequence (O14744 whole entry): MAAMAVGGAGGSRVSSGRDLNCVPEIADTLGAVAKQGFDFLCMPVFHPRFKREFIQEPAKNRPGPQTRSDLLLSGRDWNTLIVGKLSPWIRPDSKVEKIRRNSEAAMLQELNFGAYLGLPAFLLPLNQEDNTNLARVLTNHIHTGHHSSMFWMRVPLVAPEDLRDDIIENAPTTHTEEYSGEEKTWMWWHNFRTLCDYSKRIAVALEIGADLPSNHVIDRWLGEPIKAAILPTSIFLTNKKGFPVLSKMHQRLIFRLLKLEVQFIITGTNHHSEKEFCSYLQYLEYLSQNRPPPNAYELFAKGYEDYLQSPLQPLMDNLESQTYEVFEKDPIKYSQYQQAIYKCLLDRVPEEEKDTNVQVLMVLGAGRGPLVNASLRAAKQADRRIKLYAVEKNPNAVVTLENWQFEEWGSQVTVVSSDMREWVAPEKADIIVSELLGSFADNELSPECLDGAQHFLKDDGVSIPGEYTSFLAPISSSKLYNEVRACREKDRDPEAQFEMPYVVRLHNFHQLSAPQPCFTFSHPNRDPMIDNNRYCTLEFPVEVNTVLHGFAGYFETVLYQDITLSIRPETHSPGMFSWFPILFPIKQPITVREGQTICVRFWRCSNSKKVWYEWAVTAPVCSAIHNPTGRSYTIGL
PRMT5/MEP50 complex, sequence (Q9BQA1 whole entry partner): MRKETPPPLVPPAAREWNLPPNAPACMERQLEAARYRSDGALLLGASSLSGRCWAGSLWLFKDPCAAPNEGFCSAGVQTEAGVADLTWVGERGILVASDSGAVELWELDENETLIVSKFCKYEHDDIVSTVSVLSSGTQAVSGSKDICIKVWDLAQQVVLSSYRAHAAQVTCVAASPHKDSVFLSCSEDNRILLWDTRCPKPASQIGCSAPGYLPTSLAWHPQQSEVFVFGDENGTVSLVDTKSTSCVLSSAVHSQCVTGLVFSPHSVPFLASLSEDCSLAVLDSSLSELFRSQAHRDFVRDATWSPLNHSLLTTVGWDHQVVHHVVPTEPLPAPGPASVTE

Compound	IC50 (PRMT5/MEP50 complex)	sDMA in tumor (sDMA [1]; 50 mg/kg)	inhibition at 30 mg/kg (sDMA [1]; Mus musculus, Granta-519, 30 mg/kg)	IC50 (Granta-519 cells)	body weight loss ([2]; 30 mg/kg orally QD, 19 days)	body weight loss ([2]; 50 mg/kg orally QD, 16 days)	IC50 (sDMA [3])	tumor growth inhibition (Granta-519; 30 mg/kg orally QD, 19 days, average (N=5))	tumor growth inhibition (Granta-519; 50 mg/kg orally QD, 16 days, average)	half-life ([4]; blood, iv, rat (SD, male, non-fasted), 1 mg/kg i.v., average)	Vd ([4]; male, SD, blood, iv, rat, 1 mg/kg i.v., average, read-out: Vss)	bioavailability ([4]; male, SD, blood, po, rat, 1 mg/kg p.o.)	clearance ([4]; male, SD, whole blood, iv, rat, 1 mg/kg i.v., average)	dose normalized AUC ([4]; rat, 1 mg/kg p.o., average)	solubility at 4 h (physchem)
C[C@@]1(O)[C@@H]([C@H](O)c2ccc(Cl)c(Cl)c2)O[C@@H](n2ccc3c(N)ncnc32)[C@@H]1O [Example 47, (2R,3S,4R,5R)-5-(4-amino-7H-pyrrolo[2,3-d]pyrimidin-7-yl)-2-((R)-(3,4-dichlorophenyl)(hydroxy)methyl)-3-methyltetrahydrofuran-3,4-diol]	1.5 nM	no detectable sDMA	> 90%	75 nM	1%	8%	31 nM	46%	79%	4.1 h	3.1 L/kg	> 100%	8.8 mL/min/kg	3246 ng·kg·h/mL/mg	
C[C@@]1(O)[C@@H]([C@H](O)c2ccc(Cl)c(Cl)c2)O[C@@H](n2ccc3c(N)ncnc32)[C@@H]1O [Example 48, (2R,3S,4R,5R)-5-(4-amino-7H-pyrrolo[2,3-d]pyrimidin-7-yl)-2-((R)-(3,4-dichlorophenyl)(hydroxy)methyl)-3-methyltetrahydrofuran-3,4-diol Sulfate Salt]															206 µg/mL

— US10570140B2, “Selective inhibitors of protein arginine methyltransferase 5 (PRMT5)” (Prelude Therapeutics, Incorporated, priority 2017, dated 2020)
